Assay results from patent US11399540B2, “Molecules having pesticidal utility, and intermediates, compositions, and processes, related thereto” (CORTEVA AGRISCIENCE LLC, priority 2017, dated 2022).

Assays:
[1] = test system: Beet Armyworm (Spodoptera exigua, LAPHEG); experiment: Bioassay on Beet Armyworm (BAW), 128-well diet tray assay; type: in vivo; details: 168 h, 50 μg/cm^2 of test molecule on artificial diet, second instar larvae, 25° C., five to seven days, average of eight wells, read-out: BAW % Control (or Mortality) rating
Protocol: (§1) Certain molecules disclosed in this document were tested against BAW and CL using procedures described in the following examples. In the reporting of the results, the “BAW & CL Rating Table” was used (See Table Section).
Bioassays on BAW were conducted using a 128-well diet tray assay. One to five second instar BAW larvae were placed in each well (3 mL) of the diet tray that had been previously filled with 1 mL of artificial diet to which 50 μg/cm^2 of the test molecule (dissolved in 50 μL of 90:10 acetone-water mixture) had been applied (to each of eight wells) and then allowed to dry. Trays were covered with a clear self-adhesive cover, vented to allow gas exchange, and held at 25° C., 14:10 light-dark for five to seven days. Percent mortality was recorded for the larvae in each well; activity in the eight wells was then averaged. The results are indicated in the table entitled “Table ABC: Biological Results” (See Table Section).

[2] = test system: Cabbage Looper (Trichoplusia ni, TRIPNI); experiment: Bioassay on Cabbage Looper (CL), 128-well diet tray assay; type: in vivo; details: 168 h, 50 μg/cm^2 of test molecule on artificial diet, second instar larvae, 25° C., five to seven days, average of eight wells, read-out: CL % Control (or Mortality) rating
Protocol: as §1
Bioassays on CL were conducted using a 128-well diet tray assay. One to five second instar CL larvae were placed in each well (3 mL) of the diet tray that had been previously filled with 1 mL of artificial diet to which 50 μg/cm^2 of the test molecule (dissolved in 50 μL of 90:10 acetone-water mixture) had been applied (to each of eight wells) and then allowed to dry. Trays were covered with a clear self-adhesive cover, vented to allow gas exchange, and held at 25° C., 14:10 light-dark for five to seven days. Percent mortality was recorded for the larvae in each well; activity in the eight wells was then averaged. The results are indicated in the table entitled “Table ABC: Biological Results” (See Table Section).

Compound Cc1ccc(C(C)C)c(N2C(=O)CS/C2=N\C(=O)NCOc2ccc(-c3ncn(-c4ccc(OC(F)(F)F)cc4)n3)cc2)c1 [Compound F1, (Z)-1-(3-(2-isopropyl-5-methylphenyl)-4-oxothiazolidin-2-ylidene)-3-((4-(1-(4-(trifluoromethoxy)phenyl)-1H-1,2,4-triazol-3-yl)phenoxy)methyl)urea] has a mortality at 50 µg/cm2 [1] of 50 to 100% and a mortality at 50 µg/cm2 [2] of 50 to 100%.
COc1ccc(CC(F)(F)F)c(N2C(=O)CS/C2=N\C(=O)NCOc2ccc(-c3ncn(-c4ccc(OC(F)(F)F)cc4)n3)cc2)c1 [Compound F2, (Z)-1-(3-(5-Methoxy-2-(2,2,2-trifluoroethyl)phenyl)-4-oxothiazolidin-2-ylidene)-3-((4-(1-(4-(trifluoromethoxy)phenyl)-1H-1,2,4-triazol-3-yl)phenoxy)methyl)urea] showed a mortality at 50 µg/cm2 [1] of 50 to 100% and a mortality at 50 µg/cm2 [2] of 50 to 100%.
Cc1ccc(OCC(F)(F)F)c(N2C(=O)CS/C2=N\C(=O)NCOc2ccc(-c3ncn(-c4ccc(OC(F)(F)F)cc4)n3)cc2)c1 [Compound F23, (Z)-1-(3-(5-Methyl-2-(2,2,2-trifluoroethoxy)phenyl)-4-oxothiazolidin-2-ylidene)-3-((4-(1-(4-(trifluoromethoxy)phenyl)-1H-1,2,4-triazol-3-yl)phenoxy)methyl)urea] was tested, and the mortality at 50 µg/cm2 [1] was 50 to 100% and the mortality at 50 µg/cm2 [2] was 50 to 100%.
In the case of Cc1ccc(C(C)C)c(N2C(=O)CS/C2=N\C(=O)NC(C)Oc2ccc(-c3ncn(-c4ccc(OC(F)(F)F)cc4)n3)cc2)c1 (stereo not drawn) [Compound F24, (Z)-1-(3-(2-Isopropyl-5-methylphenyl)-4-oxothiazolidin-2-ylidene)-3-(1-(4-(1-(4-(trifluoromethoxy)phenyl)-1H-1,2,4-triazol-3-yl)phenoxy)ethyl)urea], the mortality at 50 µg/cm2 [1] is reported as 50 to 100% and the mortality at 50 µg/cm2 [2] is reported as 50 to 100%.
With CCOc1ccccc1N1C(=O)CS/C1=N\C(=O)NCOc1ccc(-c2ncn(-c3ccc(OC(F)(F)F)cc3)n2)cc1 [Compound F25, (Z)-1-(3-(2-Ethoxyphenyl)-4-oxothiazolidin-2-ylidene)-3-((4-(1-(4-(trifluoromethoxy)phenyl)-1H-1,2,4-triazol-3-yl)phenoxy)methyl)urea] the mortality at 50 µg/cm2 [1] was 50 to 100% and the mortality at 50 µg/cm2 [2] was 50 to 100%.
In the case of COC(=O)c1ccc(N2C(=O)CS/C2=N\C(=O)NCOc2ccc(-c3ncn(-c4ccc(OC(F)(F)F)cc4)n3)cc2)c(C)c1 [Compound F26, Methyl (Z)-3-methyl-4-(4-oxo-2-((((4-(1-(4-(trifluoromethoxy)phenyl)-1H-1,2,4-triazol-3-yl)phenoxy)methyl)carbamoyl)imino)thiazolidin-3-yl)benzoate], the mortality at 50 µg/cm2 [1] is reported as 0% and the mortality at 50 µg/cm2 [2] is reported as 50 to 100%.
In the case of O=C(/N=C1\SCC(=O)N1c1cccc2c1CCCC2)NCOc1ccc(-c2ncn(-c3ccc(OC(F)(F)F)cc3)n2)cc1 [Compound F27, (Z)-1-(4-Oxo-3-(5,6,7,8-tetrahydronaphthalen-1-yl)thiazolidin-2-ylidene)-3-((4-(1-(4-(trifluoromethoxy)phenyl)-1H-1,2,4-triazol-3-yl)phenoxy)methyl)urea], the mortality at 50 µg/cm2 [1] is reported as 50 to 100% and the mortality at 50 µg/cm2 [2] is reported as 50 to 100%.
CCCCc1ccccc1N1C(=O)CS/C1=N\C(=O)NCOc1ccc(-c2ncn(-c3ccc(OC(F)(F)F)cc3)n2)cc1 [Compound F28, (Z)-1-(3-(2-Butylphenyl)-4-oxothiazolidin-2-ylidene)-3-((4-(1-(4-(trifluoromethoxy)phenyl)-1H-1,2,4-triazol-3-yl)phenoxy)methyl)urea] gave a mortality at 50 µg/cm2 [1] of 0% and a mortality at 50 µg/cm2 [2] of 0 to 50%.
With Cc1ccc(F)c(N2C(=O)CS/C2=N\C(=O)NCOc2ccc(-c3ncn(-c4ccc(OC(F)(F)F)cc4)n3)cc2)c1 [Compound F29, (Z)-1-(3-(2-Fluoro-5-methylphenyl)-4-oxothiazolidin-2-ylidene)-3-((4-(1-(4-(trifluoromethoxy)phenyl)-1H-1,2,4-triazol-3-yl)phenoxy)methyl)urea] the mortality at 50 µg/cm2 [1] was 50 to 100% and the mortality at 50 µg/cm2 [2] was 50 to 100%.
In the case of CCc1cccc(C)c1N1C(=O)CS/C1=N\C(=O)NCOc1ccc(-c2ncn(-c3ccc(OC(F)(F)F)cc3)n2)cc1 [Compound F30, (Z)-1-(3-(2-Ethyl-6-methylphenyl)-4-oxothiazolidin-2-ylidene)-3-((4-(1-(4-(trifluoromethoxy)phenyl)-1H-1,2,4-triazol-3-yl)phenoxy)methyl)urea], the mortality at 50 µg/cm2 [1] is reported as 50 to 100% and the mortality at 50 µg/cm2 [2] is reported as 50 to 100%.
Work on CSC(C)c1ccccc1N1C(=O)CS/C1=N\C(=O)NCOc1ccc(-c2ncn(-c3ccc(OC(F)(F)F)cc3)n2)cc1 (stereo not drawn) [Compound F31, (Z)-1-(3-(2-(1-(methylthio)ethyl)phenyl)-4-oxothiazolidin-2-ylidene)-3-((4-(1-(4-(trifluoromethoxy)phenyl)-1H-1,2,4-triazol-3-yl)phenoxy)methyl)urea] yielded a mortality at 50 µg/cm2 [1] of 50 to 100% and a mortality at 50 µg/cm2 [2] of 50 to 100%.
For COc1ccc(N2C(=O)CS/C2=N\C(=O)NCOc2ccc(-c3ncn(-c4ccc(OC(F)(F)F)cc4)n3)cc2)c(C)c1 [Compound F32, (Z)-1-(3-(4-Methoxy-2-methylphenyl)-4-oxothiazolidin-2-ylidene)-3-((4-(1-(4-(trifluoromethoxy)phenyl)-1H-1,2,4-triazol-3-yl)phenoxy)methyl)urea], the mortality at 50 µg/cm2 [1] was 50 to 100% and the mortality at 50 µg/cm2 [2] was 50 to 100%.
